According to patent US20200392079A1, “Compound, Photopolymerization Initiator Containing Said Compound, and Photosensitive Resin Composition Containing Said Photopolymerization Initiator” (Nippon Kayaku Kabushiki Kaisha, priority 2018, published 2020):

Experiment: Solubility evaluation experiment (time required for dissolving in solvent)
Format: physicochemical
Experimental: After the components were mixed in a glass container in accordance with the formulation amounts (parts by mass) listed in Table 1, the solution was placed on a hot plate at 50° C. and stirred with a glass bar. The time (minute) required for dissolving was measured to evaluate the solubility.

[1] = 0.50 parts initiator in 1.00 parts (D-1) Cyclopentanon, hot plate 50° C., stirred with glass bar
[2] = 0.50 parts initiator in (D-2) 1-methoxy-2-propanol (PGME), 1.00 parts (1.43 parts for C-5), 50° C.
[3] = 0.50 parts initiator in (D-3) Polyethylene gylcol monomethylether acetate (PGMEA), 1.00-1.67 parts, 50° C.
[4] = 0.50 parts initiator in (D-4) 3-betoxymethanol, 1.11 parts (>5 parts for C-5), 50° C.

Stirring time (time required for dissolving) [1] [min] | Stirring time (time required for dissolving) [2] [min] | Stirring time (time required for dissolving) [3] [min] | Structure (SMILES) | Stirring time (time required for dissolving) [4] [min]
15 | 12 | 20 | C=CC(=O)OCCNC(=O)OCC(O)(C(=O)c1ccc(SC)cc1)c1ccc(SC)cc1 (centres unmarked) [Initiator C-2] | 40
10 | 19 | 25 | C=C(C)C(=O)OCCNC(=O)OCC(O)(C(=O)c1ccc(SC)cc1)c1ccc(SC)cc1 (centres unmarked) [Initiator C-1] | 40
